The results in this text go back to ChEMBL document CHEMBL4808206, “Novel Substituted 3,4-Dihydroquinazoline Derivatives for Treating Hepatitis B Virus Infection” (ACS Med Chem Lett, 2021).

In this assay the test system is Hepatitis B virus. The experiment in a line: Antiviral activity against HBV infected in human HepDES19 cells assessed as reduction in HBV cccDNA production by measuring inhibition of HBeAg secretion incubated for 5 days by ELISA. Format: functional, organism-based. The conditions noted are these: HepDES19, 120 h.
Turning to `CC1(C(=O)O)NC(c2ccc(Br)cc2)=Nc2c(Cl)cccc21` (stereo unspecified), the IC50 was determined as 130 nM.
As for `NC(=O)C1NC(c2cccc(Br)c2)=Nc2cc(C(F)(F)F)ccc21` (stereo unspecified), the figure is 260 nM; as for `COc1ccc2c(c1)CCN(C1=Nc3c(Cl)cccc3C(C)N1)C2=O` (stereo unspecified), 27 nM.
As to `O=C(O)C1NC(c2ccc(N3CCCC3)nc2)=Nc2c(Cl)cccc21` (stereo unspecified), the IC50 worked out at 50 nM.
As for `COC(=O)C1NC(c2ccc(Br)cc2)=Nc2c(Cl)cccc21` (stereo unspecified), the figure is 330 nM; as for `NC(=O)C1NC(c2ccc(Br)cc2)=Nc2c(Cl)cccc21` (stereo unspecified), 70 nM.
